Data as given in patent publication US9670142B2, “1,3-diaminocyclopentane carboxamide derivatives” (Merck Patent GmbH, priority 2013, dated 2017).

target: human fatty acid synthase FASN (Homo sapiens (Human), UniProt P49327); experiment: Biochemical activity testing of human fatty acid synthase FASN (NADPH fluorescence intensity enzyme assay); conditions: human recombinant full-length fatty acid synthase
Procedure, shortened: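 In-house Sf9-expressed full-length enzyme (3 μL of 40 nM) in 50 mM potassium phosphate pH 7.0 with glutathione, BSA and Tween-20, plus NADPH (2 μL of 200 μM), preincubated ≥15 min with compound (10 concentrations from 30 μM final, 1% DMSO). Acetyl-CoA/malonyl-CoA added; NADPH fluorescence (ex 340/em 460 nm) read before and after 30 min at room temperature, difference used for IC50.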

Chain of human fatty acid synthase FASN (P49327 whole entry): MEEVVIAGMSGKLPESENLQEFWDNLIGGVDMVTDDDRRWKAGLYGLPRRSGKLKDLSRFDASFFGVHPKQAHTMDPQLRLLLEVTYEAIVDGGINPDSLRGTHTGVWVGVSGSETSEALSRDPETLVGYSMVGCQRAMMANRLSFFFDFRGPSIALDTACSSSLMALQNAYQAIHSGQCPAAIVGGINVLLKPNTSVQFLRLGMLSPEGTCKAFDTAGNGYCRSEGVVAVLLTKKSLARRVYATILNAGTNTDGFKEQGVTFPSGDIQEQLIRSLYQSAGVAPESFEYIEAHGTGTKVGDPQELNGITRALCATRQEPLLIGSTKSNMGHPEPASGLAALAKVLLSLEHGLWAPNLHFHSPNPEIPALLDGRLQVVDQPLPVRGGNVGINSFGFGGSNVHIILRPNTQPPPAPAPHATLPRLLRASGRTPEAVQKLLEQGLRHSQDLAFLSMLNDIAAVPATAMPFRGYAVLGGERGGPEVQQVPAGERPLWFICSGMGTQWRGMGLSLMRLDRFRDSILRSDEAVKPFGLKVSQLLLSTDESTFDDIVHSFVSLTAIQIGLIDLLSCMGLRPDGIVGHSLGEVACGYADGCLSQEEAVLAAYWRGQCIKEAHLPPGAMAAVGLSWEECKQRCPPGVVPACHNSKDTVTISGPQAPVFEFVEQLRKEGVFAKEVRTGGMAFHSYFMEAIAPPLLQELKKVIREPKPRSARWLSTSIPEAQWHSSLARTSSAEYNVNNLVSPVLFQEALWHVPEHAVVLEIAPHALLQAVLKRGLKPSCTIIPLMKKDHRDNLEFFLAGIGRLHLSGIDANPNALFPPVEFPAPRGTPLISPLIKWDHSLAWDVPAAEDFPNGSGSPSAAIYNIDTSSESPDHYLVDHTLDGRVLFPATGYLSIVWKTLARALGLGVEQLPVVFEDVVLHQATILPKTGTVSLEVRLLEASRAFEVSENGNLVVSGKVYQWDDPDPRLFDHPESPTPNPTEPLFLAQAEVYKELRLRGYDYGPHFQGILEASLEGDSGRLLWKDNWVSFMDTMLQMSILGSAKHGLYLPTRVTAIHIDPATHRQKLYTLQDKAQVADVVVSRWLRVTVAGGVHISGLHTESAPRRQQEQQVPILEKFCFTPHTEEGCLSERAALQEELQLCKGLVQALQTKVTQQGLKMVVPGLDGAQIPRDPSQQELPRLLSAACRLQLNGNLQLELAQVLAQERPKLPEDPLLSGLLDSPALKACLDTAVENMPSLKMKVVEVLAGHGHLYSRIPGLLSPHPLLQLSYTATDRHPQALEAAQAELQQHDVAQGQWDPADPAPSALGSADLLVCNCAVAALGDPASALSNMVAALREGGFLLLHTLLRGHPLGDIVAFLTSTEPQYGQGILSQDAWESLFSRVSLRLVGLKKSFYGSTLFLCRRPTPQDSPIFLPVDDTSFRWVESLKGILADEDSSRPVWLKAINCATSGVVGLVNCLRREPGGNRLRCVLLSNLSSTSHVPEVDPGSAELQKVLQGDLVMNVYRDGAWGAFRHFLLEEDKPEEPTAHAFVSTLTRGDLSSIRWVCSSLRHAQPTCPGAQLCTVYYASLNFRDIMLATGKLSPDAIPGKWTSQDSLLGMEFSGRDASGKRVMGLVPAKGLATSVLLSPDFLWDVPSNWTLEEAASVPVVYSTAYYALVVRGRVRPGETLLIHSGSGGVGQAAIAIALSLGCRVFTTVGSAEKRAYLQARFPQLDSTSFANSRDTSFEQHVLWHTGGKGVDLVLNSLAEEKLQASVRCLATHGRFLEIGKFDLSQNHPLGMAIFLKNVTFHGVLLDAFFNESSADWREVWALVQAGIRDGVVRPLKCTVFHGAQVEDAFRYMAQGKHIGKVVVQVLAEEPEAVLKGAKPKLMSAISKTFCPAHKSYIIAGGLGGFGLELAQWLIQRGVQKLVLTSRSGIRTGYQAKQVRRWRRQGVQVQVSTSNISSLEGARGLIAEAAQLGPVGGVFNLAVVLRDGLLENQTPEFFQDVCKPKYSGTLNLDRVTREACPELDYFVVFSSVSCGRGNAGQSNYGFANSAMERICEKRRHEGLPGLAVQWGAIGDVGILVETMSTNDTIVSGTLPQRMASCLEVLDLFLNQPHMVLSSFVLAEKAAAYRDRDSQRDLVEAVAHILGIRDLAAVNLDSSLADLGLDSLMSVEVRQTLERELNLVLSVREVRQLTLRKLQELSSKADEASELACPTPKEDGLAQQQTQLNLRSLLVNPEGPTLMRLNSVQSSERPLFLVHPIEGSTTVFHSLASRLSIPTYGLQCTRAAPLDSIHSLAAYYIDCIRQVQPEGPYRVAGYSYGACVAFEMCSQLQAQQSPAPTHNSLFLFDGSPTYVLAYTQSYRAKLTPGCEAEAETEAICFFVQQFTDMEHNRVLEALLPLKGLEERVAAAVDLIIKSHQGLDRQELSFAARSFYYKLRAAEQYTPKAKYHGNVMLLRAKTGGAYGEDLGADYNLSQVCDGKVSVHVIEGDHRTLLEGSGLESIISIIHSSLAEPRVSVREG

Compared with `CCC(=O)N[C@H]1CC[C@@H](N(C)C(=O)c2ncc(-c3nc4ccc(Cl)cc4o3)cn2)C1` [Compound A156, 5-(6-chloro-benzoxazol-2-yl)-pyrimidine-2-carboxylic acid methyl-((1R,3S)-3-propionylamino-cyclopentyl)-amide], `CCC(=O)N[C@H]1CC[C@@H](N(C)C(=O)c2ccc(-c3nc4ccc(Cl)cc4o3)cc2)C1` [Compound A128, 4-(6-chloro-benzoxazol-2-yl)-N-methyl-N-((1R,3S)-3-propionylamino-cyclopentyl)-benzamide] is lower in IC50: 3000 to 50000 nM for the first, less than 300 nM for the second.

`CCC(=O)N[C@H]1CC[C@@H](N(C)C(=O)c2ccc(-c3cc(C)c4[nH]ncc4c3)cc2)C1` [Compound A107, N-methyl-4-(7-methyl-1H-indazol-5-yl)-N-((1R,3S)-3-propionylamino-cyclopentyl)-benzamide] and `CCC(=O)N[C@H]1CC[C@@H](N(C)C(=O)c2ccc(-c3cc4cn[nH]c4cc3C)cc2)C1` [Compound A102, N-methyl-4-(6-methyl-1H-indazol-5-yl)-N-((1R,3S)-3-propionylamino-cyclopentyl)-benzamide] cannot be ordered by IC50: less than 300 nM for the first, less than 300 nM for the second.

`CCC(=O)N[C@H]1CC[C@@H](N(C)C(=O)c2ccc(-c3ccc4[nH]ccc4n3)cc2)C1` [Compound A129, N-methyl-N-((1R,3S)-3-propionylamino-cyclopentyl)-4-(1H-pyrrolo[3,2-b]pyridin-5-yl)-benzamide] and `CCC(=O)N[C@H]1CC[C@@H](N(C)C(=O)c2ccc(-c3ccc4[nH]cnc4c3)cc2)C1` [Compound A76, 4-(1H-benzimidazol-5-yl)-N-methyl-N-((1R,3S)-3-propionylamino-cyclopentyl)-benzamide] cannot be ordered by IC50: less than 300 nM for the first, less than 300 nM for the second.

`COC(=O)[C@H](CC(=O)N[C@H]1CC[C@@H](N(C)C(=O)c2ccc(-c3nc4ccccc4o3)cc2)C1)NC(C)=O` [Compound A39, (S)-2-acetylamino-N-{(1S,3R)-3-[(4-benzoxazol-2-yl-benzoyl)-methyl-amino]-cyclopentyl}-succinamic acid methyl ester] and `CO[C@H](C)C(=O)N[C@H]1CC[C@@H](N(C)C(=O)c2ccc(-c3nc4ccccc4o3)cc2)C1` [Compound A32, 4-benzoxazol-2-yl-N-[(1R,3S)-3-((R)-2-methoxy-propionylamino)-cyclopentyl]-N-methyl-benzamide] fall in the same range of IC50: 300 to 3000 nM for the first, 300 to 3000 nM for the second.

`CCC(=O)N[C@H]1CC[C@@H](N(C)C(=O)c2ccc(-c3ccc4c(c3)NC(=O)C4)cc2)C1` [Compound A60, N-methyl-4-(2-oxo-2,3-dihydro-1H-indol-6-yl)-N-((1R,3S)-3-propionylamino-cyclopentyl)-benzamide] and `CCC(=O)N[C@H]1CC[C@@H](N(C)C(=O)c2ccc(-c3ccc(C#N)c(F)c3)cc2)C1` [Compound A71, 4′-cyano-3′-fluoro-biphenyl-4-carboxylic acid methyl-((1R,3S)-3-propionylamino-cyclopentyl)-amide] cannot be ordered by IC50: less than 300 nM for the first, less than 300 nM for the second.

`CCC(=O)N[C@H]1CC[C@@H](N(C)C(=O)c2ccc(-c3nc4ccccc4o3)cn2)C1` [Compound A16, 5-benzoxazol-2-yl-pyridine-2-carboxylic acid methyl-((1R,3S)-3-propionylamino-cyclopentyl)-amide] and `CCC(=O)N[C@H]1CC[C@@H](N(C)C(=O)c2ccc(-c3nc4ccccc4o3)c(OC)c2)C1` [Compound A13, 4-benzoxazol-2-yl-3-methoxy-N-methyl-N-((1R,3S)-3-propionylamino-cyclopentyl)-benzamide] cannot be ordered by IC50: less than 300 nM for the first, less than 300 nM for the second.

`CCC(=O)N[C@H]1CC[C@@H](N(C)C(=O)c2ccc(-c3ccc(OC)cc3)cc2)C1` [Compound A82, 4′-methoxy-biphenyl-4-carboxylic acid methyl-((1R,3S)-3-propionylamino-cyclopentyl)-amide] and `CCC(=O)N[C@H]1CC[C@@H](N(C)C(=O)c2ccc(-c3ccc(OC)c(OC)c3)cc2)C1` [Compound A56, 3′,4′-dimethoxy-biphenyl-4-carboxylic acid methyl-((1R,3S)-3-propionylamino-cyclopentyl)-amide] cannot be ordered by IC50: less than 300 nM for the first, less than 300 nM for the second.

`CCC(=O)N[C@H]1CC[C@@H](N(C)C(=O)c2ccc(C#Cc3ccncc3)cc2)C1` [Compound A15, N-methyl-N-((1R,3S)-3-propionylamino-cyclopentyl)-4-pyridin-4-ylethynyl-benzamide] and `COCC(=O)N[C@H]1CC[C@@H](N(C)C(=O)c2ccc(-c3nc4ccccc4o3)cc2)C1` [Compound A34, 4-benzoxazol-2-yl-N-[(1R,3S)-3-(2-methoxy-acetylamino)-cyclopentyl]-N-methyl-benzamide] cannot be ordered by IC50: less than 300 nM for the first, less than 300 nM for the second.

`CCC(=O)N[C@H]1CC[C@@H](N(C)C(=O)c2ccc(-c3ccc4c(ccn4C)c3)c(C)c2)C1` [Compound A114, 3,N-dimethyl-4-(1-methyl-1H-indol-5-yl)-N-((1R,3S)-3-propionylamino-cyclopentyl)-benzamide] and `CCC(=O)N[C@H]1CC[C@@H](N(C)C(=O)c2cnc(-c3ccc4c(ccn4C)c3)cn2)C1` [Compound A125, 5-(1-methyl-1H-indol-5-yl)-pyrazine-2-carboxylic acid methyl-((1R,3S)-3-propionylamino-cyclopentyl)-amide] cannot be ordered by IC50: less than 300 nM for the first, less than 300 nM for the second.

`CCC(C)CC(=O)N[C@H]1CC[C@@H](N(C)C(=O)c2ccc(-c3nc4ccccc4o3)cc2)C1` (stereo partly drawn) [Compound A26, 4-benzoxazol-2-yl-N-methyl-N-[(1R,3S)-3-(3-methyl-pentanoylamino)-cyclopentyl]-benzamide] and `CC[C@H](C)CC(=O)N[C@H]1CC[C@@H](N(C)C(=O)c2ccc(-c3nc4ccccc4o3)cc2)C1` [Compound A30, 4-benzoxazol-2-yl-N-methyl-N-[(1R,3S)-3-((S)-3-methyl-pentanoylamino)-cyclopentyl]-benzamide] cannot be ordered by IC50: less than 300 nM for the first, less than 300 nM for the second.

`CN(C(=O)c1ccc(-c2nc3ccccc3o2)cc1)[C@@H]1CC[C@H](NC(=O)[C@@H]2CCCO2)C1` [Compound A41, (S)-tetrahydro-furan-2-carboxylic acid {(1S,3R)-3-[(4-benzoxazol-2-yl-benzoyl)-methyl-amino]-cyclopentyl}-amide] and `CN(C(=O)c1ccc(-c2nc3ccccc3o2)cc1)[C@@H]1CC[C@H](NC(=O)C2CCCC2)C1` [Compound A21, 4-benzoxazol-2-yl-N-[(1R,3S)-3-(cyclopentanecarbonyl-amino)-cyclopentyl]-N-methyl-benzamide] cannot be ordered by IC50: less than 300 nM for the first, less than 300 nM for the second.

First: CCC(=O)N[C@H]1CC[C@@H](N(C)C(=O)c2ccc(-c3ccc4[nH]ccc4c3)nn2)C1 [Compound A113, 6-(1H-indol-5-yl)-pyridazine-3-carboxylic acid methyl-((1R,3S)-3-propionylamino-cyclopentyl)-amide]
Second: CCC(=O)N[C@H]1CC[C@@H](N(C)C(=O)c2ccc(-c3cc(F)c4c(c3)CCN4)nc2)C1 [Compound A145, 6-(7-fluoro-2,3-dihydro-1H-indol-5-yl)-N-methyl-N-((1R,3S)-3-propionylamino-cyclopentyl)-nicotinamide]
The IC50 of the first is lower: less than 300 nM for the first, 300 to 3000 nM for the second. The first is the more potent here.

Compound `CCC(=O)N[C@H]1CC[C@@H](N(C)C(=O)c2ccc(-c3ccc4[nH]ncc4c3C)c(C)c2)C1` [Compound A124, 3,N-dimethyl-4-(4-methyl-1H-indazol-5-yl)-N-((1R,3S)-3-propionylamino-cyclopentyl)-benzamide] has an IC50 of less than 300 nM.
